Test results published in patent US7332615B2, “Hydrophilic analogs of 4,8-dihydrobenzodithiophene-4,8-diones as anticancer agents” (Industrial Technology Research Institute, priority 2004, dated 2008).
Where a name gives a salt, the structure may show the parent alone. Read-outs that look alike come from different tables or passages of the source.

Assays:
[1] = Water solubility; assay type: physicochemical; conditions: in H2O; for solubility: water
[2] = test system: epidermoid carcinoma of the nasopharynx (KB); experiment: Cytotoxicity Assays Method C, KB; assay type: cell-based; conditions: KB, 50% reduction in cell number after 72 hr of incubation, read-out: IC50 KB
[3] = test system: p-gp-expressing epidermoid carcinoma of the nasopharynx (KB-VIN); experiment: Cytotoxicity Assays Method C, KB-VIN; assay type: cell-based; conditions: 50% reduction in cell number after 72 hr of incubation
Text: Cytotoxicity Assays Method C (KB, KB-VIN, AS49, HCT-8, PC-3) [K. H. Lee et. al. Planta Med. 54, 308-312 (1998), Monk A et. al. J. Natl. Cancer Inst. 83, 757-766 (1991).] The cell lines included epidermoid caninoma of the nasopharynx (KB), p-gp-expressing epidermoid caninoma of the nasopharynx (KB-VIN), lung carcinoma (A-549), ileocecal carinoma (HCT-8) and prostate cancer (PC-3) cell lines.

[4] = test system: lung carcinoma (A-549); experiment: Cytotoxicity Assays Method C, A-549; assay type: cell-based; conditions: A549, 50% reduction in cell number after 72 hr of incubation, read-out: IC50 A549
[5] = test system: ileocecal carcinoma (HCT-8); experiment: Cytotoxicity Assays Method C, HCT-8; assay type: cell-based; conditions: HCT-8, 50% reduction in cell number after 72 hr of incubation, read-out: IC50 HCT-8
[6] = test system: prostate cancer (PC-3); experiment: Cytotoxicity Assays Method C, PC-3; assay type: cell-based; conditions: PC-3, 50% reduction in cell number after 72 hr of incubation, read-out: IC50 PC-3

Row | SMILES | IC50 [3] | IC50 [4] | solubility [1] | IC50 ([5]; Homo sapiens, HCT-8, 72 h) | IC50 ([2]; 72 h) | IC50 ([6]; 72 h) | IC50 ([4]; Homo sapiens, A549, 72 h) | further results
1 | CC(O)c1cc2c(s1)C(=O)c1sccc1C2=O (stereo not drawn) [Compound 1b, reference compound] |  |  |  |  |  |  |  | Solubility (water solubility) [1]: 9.6 × 10^−3 mg/1 mL H2O
2 | COc1cccc2c1C(=O)c1c(O)c3c(c(O)c1C2=O)C[C@@](O)(C(=O)CO)C[C@@H]3O[C@H]1C[C@H](N)[C@H](O)[C@H](C)O1 [Doxorubincin, reference compound] | 4.97 µM | 0.18 µM |  |  |  |  |  | IC50 [2]: 0.18 µM
3 | O=C([O-])CCC(=O)OCc1cc2c(s1)C(=O)c1sccc1C2=O.[Na+] [IIa-1-Na, Sodium mono-[1-(4,8-dioxo-4,8-dihydrobenzo[1,2-b:5,4-b′]dithiophen-2-yl)-methyl]succinate] | 3.79 µM |  | ≥ 10000 µg/mL | 3.25 µM | 2.09 µM | 1.22 µM | 3.79 µM | 
4 | O=C([O-])CCCC(=O)OCc1cc2c(s1)C(=O)c1sccc1C2=O.[Na+] [IIa-2-Na, Sodium mono-[1-(4,8-dioxo-4,8-dihydrobenzo[1,2-b:5,4-b′]dithiophen-2-yl)methyl]pentanedioate] | 1.31 µM |  | ≥ 1800 µg/mL | 0.65 µM | 1.72 µM | 0.89 µM | 0.94 µM | 
5 | CC(OC(=O)CCC(=O)[O-])c1cc2c(s1)C(=O)c1sccc1C2=O.[Na+] (stereo not drawn) [IIb-1-Na, Sodium mono-[1-(4,8-dioxo-4,8-dihydroxybenzo-[1,2-b;5,4-b′]dithiophen-2-yl)-ethyl]succinate] | 0.47 µM |  | ≥ 3000 µg/mL | 1.83 µM | 0.55 µM | 0.37 µM | 0.47 µM | 
6 | CC(OC(=O)CCCC(=O)[O-])c1cc2c(s1)C(=O)c1sccc1C2=O.[Na+] (stereo not drawn) [IIb-2-Na, Sodium mono-[1-(4,8-dioxo-4,8-dihydroxybenzo[1,2-b;5,4-b′]dithiophen-2-yl)-ethyl]pentanedioate] | 1.13 µM |  | ≥ 9600 µg/mL | 1.89 µM | 1.36 µM | 0.88 µM | 1.89 µM | 
7 | O=C(O)COCc1cc2c(s1)C(=O)c1sccc1C2=O [IVa, 4,8-dioxo-4,8-dihydroxybenzo[1,2-b:5,4-b′]-dithiophen-2-yl-methoxy acetic acid] |  |  |  | 2.07 µM | 3.61 µM | 1.05 µM | 2.46 µM | IC50 ([3]; Homo sapiens, KBVIN, 72 h): 2.46 µM
8 | O=C([O-])COCc1cc2c(s1)C(=O)c1sccc1C2=O.[Na+] [IVa-Na, Sodium 4,8-dioxo-4,8-dihydroxybenzo[1,2-b:5,4-b′]-dithiophen-2-yl-methoxy acetate] |  |  | ≥ 9600 µg/mL |  |  |  |  | 
9 | CC(OCC(=O)[O-])c1cc2c(s1)C(=O)c1sccc1C2=O.[Na+] (stereo not drawn) [IVb-Na, Sodium 1-(4,8-dioxo-4,8-dihydroxybenzo[1,2-b:5,4b′]-dithiophen-2-yl-ethoxy)-acetate] |  |  | ≥ 3200 µg/mL |  |  |  |  | 
10 | CC(OCC(=O)[O-])c1cc2c(s1)C(=O)c1ccsc1C2=O.[Na+] (stereo not drawn) [IX-Na, Sodium 1-(4,8-dioxo-4,8-dihydroxybenzo[1,2-b:4,5-b′]-dithiophen-2-yl-ethoxy)-acetate] | 1 µM | 0.26 µM | ≥ 6000 µg/mL |  |  |  |  | IC50 [5]: 0.22 µM; IC50 [2]: 1.11 µM; IC50 [6]: 0.14 µM
11 | CC[C@]1(O)C[C@H]2CN(CCc3c([nH]c4ccccc34)[C@@](C(=O)OC)(c3cc4c(cc3OC)N(C=O)[C@H]3[C@@](O)(C(=O)OC)[C@H](OC(C)=O)[C@]5(CC)C=CCN6CC[C@]43[C@@H]65)C2)C1 [VCR, reference compound] | 5.33 µM | 0.04 µM |  |  |  |  |  | IC50 [2]: 0.01 µM
12 | CC(OC(=O)CCC(=O)[O-])c1cc2c(s1)C(=O)c1ccsc1C2=O.[Na+] (stereo not drawn) [VII-1-Na, Sodium mono-[1-(4,8-dioxo-4,8-dihydroxybenzo-[1,2-b;4,5-b′]dithiophen-2-yl)-ethyl]succinate] | 1.96 µM |  | ≥ 10000 µg/mL | 1.44 µM | 2.14 µM | 0.73 µM | 2.22 µM | 
13 | CC(OC(=O)CCCC(=O)[O-])c1cc2c(s1)C(=O)c1ccsc1C2=O.[Na+] (stereo not drawn) [VII-2-Na, Sodium mono-[1-(4,8-dioxo-4,8-dihydroxybenzo[1,2-b;4,5-b′]dithiophen-2-yl)-ethyl]pentanedioate] | 0.68 µM |  | ≥ 3400 µg/mL | 0.88 µM | 0.45 µM | 0.1 µM | 2.52 µM | 
14 | COc1cc([C@@H]2c3cc4c(cc3[C@@H](O[C@@H]3O[C@@H]5CO[C@@H](C)O[C@H]5[C@H](O)[C@H]3O)[C@H]3COC(=O)[C@H]23)OCO4)cc(OC)c1O [VP-16, reference compound] | > 10 µM | 1.36 µM |  |  |  |  |  | IC50 [2]: 4.76 µM
15 | O=C(O)c1cc2c(s1)C(=O)c1sccc1C2=O [XI, 4,8-dioxo-4,8-dihydrobenzo-[1,2-b;5,4-b′]dithiophene-2-carboxylic acid] |  | 30.3 µM |  | 37.2 µM | 38.3 µM |  |  | IC50 [6]: 13.4 µM; IC50 ([3]; Homo sapiens, KBVIN, 72 h): 38.3 µM
16 | O=C(O)c1cc2c(s1)C(=O)c1sccc1C2=O [XI-NH4, Ammonium 4,8-dioxo-4,8-dihydrobenzo-[1,2-b:5,4-b′]dithiophene-2-carboxylate] | 36 µM | > 70 µM | ≥ 10000 µg/mL |  |  |  |  | IC50 [5]: > 70 µM; IC50 [2]: 36 µM; IC50 [6]: > 70 µM
17 | O=C([O][Na+])c1cc2c(s1)C(=O)c1sccc1C2=O [XI-Na, Sodium 4,8-dioxo-4,8-dihydrobenzo-[1,2-b:5,4-b′]dithiophene-2 carboxylate] |  |  | ≥ 10000 µg/mL |  |  |  |  | 
18 | C[C@H](NC(=O)c1cc2c(s1)C(=O)c1sccc1C2=O)C(=O)[O-].[Na+] [XIII-Na, Sodium (L)-2-{(4,8-dioxo-4,8-dihydrobenzo-[1,2-b;5,4-b′]dithiophene-2-carbonyl)-amino}-propionate] |  |  | ≥ 6600 µg/mL |  |  |  |  | 
19 | O=C(O)c1cc2c(s1)C(=O)c1ccsc1C2=O [XIV, 4,8-dioxo-4,8-dihydrobenzo-[1,2-b;4,5-b′]dithiophene-2-carboxylic acid] |  | 44.4 µM |  | 44.1 µM | 38.3 µM | 25.3 µM |  | IC50 ([3]; Homo sapiens, KBVIN, 72 h): 38.3 µM
20 | O=C(O)c1cc2c(s1)C(=O)c1ccsc1C2=O [XIV-NH4, Ammonium 4,8-dioxo-4,8-dihydrobenzo-[1,2-b;4,5-b′]dithiophene-2-carboxylate] | 36 µM | 16.2 µM | 4000 µg/mL |  |  |  |  | IC50 [5]: 26.3 µM; IC50 [2]: 36 µM; IC50 [6]: 13.3 µM
21 | C[C@H](NC(=O)c1cc2c(s1)C(=O)c1ccsc1C2=O)C(=O)[O-].[Na+] [XVI-Na] |  |  | ≥ 3200 µg/mL | 0.51 µM | 1.76 µM | 0.17 µM | 0.54 µM | IC50 ([3]; Homo sapiens, KBVIN, 72 h): 0.54 µM
22 | CN(C)CCNC(=O)c1cc2c(s1)C(=O)c1sccc1C2=O [XVII-H3PO4, 4,8dioxo-4,8-dihydrobenzo[1,2-b;5,4-b′]dithiophene-2-carboxylate-(2-dimethyl-aminoethyl)-amide phosphoric acid salt] |  |  | ≥ 2000 µg/mL |  |  |  |  | 
